Test results as given in US9040717B2, “Pyrazole-amide compounds and pharmaceutical use thereof” (JAPAN TOBACCO INC., priority 2013, dated 2015).

Key:
[1] = tested on: adipose tissue PDH activity; assay: Ex vivo PDH activation assay, adipose tissue; assay type: in vivo, Sprague-Dawley rats; conditions: non-fasting SD rats, vehicle 31 ± 10, mean ± S.D. (n = 3)
Description: (§1) The action of test compound on tissue PDH activity was evaluated. NADH production was detected via p-iodonitrotetrazolium violet (INT)-coupled system to measure PDH activity.
(§2) Normal male Sprague-Dawley rats were randomly allocated to the vehicle group and the test compound groups. The vehicle (0.5% aqueous methylcellulose solution, 5 mL/kg) or the test compound was orally administered to the rats. At 5 or 20 hr after administration, the rats were anesthetized with an intraperitoneal injection of sodium pentobarbital (60 mg/kg), and liver slices and epididymal adipose tissues were collected.
(§3) To the adipose tissues were rapidly added 3 volumes of an ice-cold homogenization buffer, and the mixtures were homogenized using a Polytron homogenizer. The homogenates were centrifuged at 600×g, 4° C. for 10 min to obtain the supernatant. The supernatants were centrifuged at 16,000×g, 4° C. for 10 min to collect the precipitates. The precipitates were washed by resuspension in the homogenization buffer (1 mL) and centrifuged in the same manner. The precipitates were frozen with liquid nitrogen and stored at −80° C. as the adipose tissue mitochondrial fraction.
(§4) The mitochondrial fractions were thawed and suspended with the sample buffer (0.25 mol/L sucrose, 20 mmol/L tris(hydroxymethyl)aminomethane hydrochloride (pH 7.5), 50 mmol/L potassium chloride, and 1 mL/L 4-(1,1,3,3-tetramethylbutyl)phenyl-polyethylene glycol (Triton X-100)). Active PDH activity (PDHa activity) and total PDH activity (PDHt activity) were measured to evaluate the PDH activity. For the measurement of the PDHt activity, equal amounts of the mitochondrial suspension and the activation buffer (0.25 mol/L sucrose, 20 mmol/L tris(hydroxymethyl)aminomethane hydrochloride (pH 7.5), 50 mmol/L potassium chloride, 1 mL/L Triton X-100, 4 mmol/L calcium chloride, 40 mmol/L magnesium chloride, 10 mmol/L sodium dichloroacetate) were mixed, and the mixtures were incubated at 37° C. for 10 min. Forty microliters of the mitochondrial suspensions diluted with a sample buffer were added to a 96-well microplate for activity measurement and blank measurement. Then 180 μL of the reaction mixture (0.056 mmol/L potassium phosphate buffer (pH 7.5), 5.6 mmol/L DL-carnitine, 2.8 mmol/L NAD, 0.22 mmol/L thiamin pyrophosphate, 0.11 mmol/L Coenzyme A, 1.1 mL/L Triton X-100, 1.1 mmol/L magnesium chloride, 1.1 g/L bovine serum albumin, 0.67 mmol/L INT, 7.2 μmol/L phenazine methosulfate, 28 mmol/L sodium oxamate) was added to each well, and then 20 μL of 50 mmol/L sodium pyruvate for activity measurement or water for blank measurement were added. The mixtures were incubated at room temperature under shading. The absorbances at 500-750 nm, which were attributable to reduction of INT, the final electron acceptor, were measured using a microplate reader over time and the changes in the absorbance were calculated. The PDH activity was calculated by subtraction of the change in absorbance of the blank well from that of the activity measurement well. The percentage of the PDHa activity to the PDHt activity was calculated and taken as an index of the PDH activation.

[2] = molecular target: hERG current in hERG-transfected HEK293 cells (Homo sapiens (Human), UniProt Q12809); assay: hERG whole cell patch clamp test; assay type: cell-based
Description: Using human ether-a-go-go related gene (hERG)-transfected HEK293 cells (Cytomyx Limited), an influence on hERG current was examined according to the whole cell patch clamp technique. The hERG-transfected HEK293 cells were passaged using a CO2 incubator (BNA-111, TABAI ESPEC CORP.) under the set conditions of 37° C., 5% CO2, saturated humidity. Culture containers used were Collagen Type I Coated 75 cm^2 flask (4123-010, AGC TECHNO GLASS CO., Ltd.) and Collagen Type I Coated 35 mm culture dish (4000-010, AGC TECHNO GLASS CO., Ltd.). The culture medium used was E-MEM (Eagle Minimum Essential Medium (Earle's Salts, Nikken biomedical laboratory) added with 10% FCS (Fetal calf serum, BioWest, L.L.C.) and 1% MEM Non-Essential Amino Acids Solution (NEAA, Invitrogen Corporation). Geneticin for the selection of hERG gene expressing cells was added thereto to a concentration of 400 μg/mL. As the cells for the measurement, 3×10^4 hERG-transfected HEK293 cells were plated on a 35 mm culture dish 4 to 7 days before measurement of the hERG current. The culture dish produced for the measurement contained the above-mentioned culture medium without geneticin (Invitrogen Corporation).
The highest evaluation concentration of each compound was determined from the highest concentration at which precipitation was not found in the standard extracellular fluid (NaCl: 140 mmol/L, KCl: 2.5 mmol/L, MgCl2:2 mmol/L, CaCl2: 2 mmol/L, HEPES: 10 mmol/L, glucose: 10 mmol/L (adjusted to pH 7.4 with Tris-base)). As the application method, each solution to be applied was ejected from a Y-tube having a tip diameter of about 0.25 mm, which was adjacent (about 2 mm) to the cells, and applied to the cells. The ejection rate was about 0.4 mL/min.
The experiment was performed at room temperature under a phase contrast microscope. The 35 mm culture dish plated with the cells was set on a measurement apparatus, and the standard extracellular fluid was continuously applied to the cells from the Y-tube. A glass electrode for the measurement was filled with an intracellular fluid (Potassium Gluconate: 130 mmol/L, KCl: 20 mmol/L, MgCl2: 1 mmol/L, ATP-Mg: 5 mmol/L, EGTA: 3.5 mmol/L, HEPES: 10 mmol/L (adjusted to pH 7.2 with Tris-base)). A conventional whole cell patch clamp method was applied to the cells, and the maintenance electric potential was set to −80 mV. Under a fixed electric potential, the whole cell current was amplified by an amplifier for patch clamp (AXOPATCH-200B, Axon Instruments, Inc.), and the data was loaded into a computer (IMC-P642400, Intermedical Co., Ltd.) using a data acquisition analysis software (pCLAMP 9.2, Axon Instruments, Inc.).
The measurement of the hERG current was performed in the following two steps. In both cases, the hERG current was initiated by giving a command potential (maintenance electric potential −80 mV, prepulse +20 mV, 1.5 sec, test-pulse −50 mV, 1.5 sec).
Step (1): The above-mentioned command potential was given at 0.1 Hz for 2 min.
Step (2): The above-mentioned command potential was subjected to P/3 subtraction of pCLAMP 9.2 to remove leak current. This was repeated three times and an average thereof was taken as hERG current.
Subsequent to step (1), Step (2) was performed (about 3 min), and the maximum tail current obtained by applying a test-pulse to the hERG current obtained by the method of step (2) was taken as hERG current value. Hereafter, the operations of (1) and (2) were alternately repeated until completion of the experiment and the hERG current value was measured.
Stable hERG current value was recorded three times (about 10 min), and the standard extracellular fluid was instantaneously exchanged with each application fluid. The hERG current value was measured three times (about 10 min) in the same manner during perfusion of the application fluid, and the current value obtained by the 3rd measurement was taken as hERG current value after perfusion of the application fluid. […]

[3] = tested on: liver PDH activity; assay: Ex vivo PDH activation assay, liver; assay type: in vivo, Sprague-Dawley rats; conditions: non-fasting SD rats, vehicle 13 ± 3, mean ± S.D. (n = 3)
Description: as §1, §2
as §3, with “liver slices” for “adipose tissues”, “9” for “3”, “of” for “of an”, “buffer (0.25 mol/L sucrose, 5 mmol/L tris(hydroxymethyl)aminomethane hydrochloride (pH 7.5), 2 mmol/L EDTA),” for “buffer,”, “supernatants (1 mL)” for “supernatants”, “liver” for “adipose tissue”
as §4

[4] = Table 2, 5 hr after oral 3 mg/kg
[5] = Table 2, 20 hr after oral 3 mg/kg

Sequence of hERG current in hERG-transfected HEK293 cells (Q12809 whole entry): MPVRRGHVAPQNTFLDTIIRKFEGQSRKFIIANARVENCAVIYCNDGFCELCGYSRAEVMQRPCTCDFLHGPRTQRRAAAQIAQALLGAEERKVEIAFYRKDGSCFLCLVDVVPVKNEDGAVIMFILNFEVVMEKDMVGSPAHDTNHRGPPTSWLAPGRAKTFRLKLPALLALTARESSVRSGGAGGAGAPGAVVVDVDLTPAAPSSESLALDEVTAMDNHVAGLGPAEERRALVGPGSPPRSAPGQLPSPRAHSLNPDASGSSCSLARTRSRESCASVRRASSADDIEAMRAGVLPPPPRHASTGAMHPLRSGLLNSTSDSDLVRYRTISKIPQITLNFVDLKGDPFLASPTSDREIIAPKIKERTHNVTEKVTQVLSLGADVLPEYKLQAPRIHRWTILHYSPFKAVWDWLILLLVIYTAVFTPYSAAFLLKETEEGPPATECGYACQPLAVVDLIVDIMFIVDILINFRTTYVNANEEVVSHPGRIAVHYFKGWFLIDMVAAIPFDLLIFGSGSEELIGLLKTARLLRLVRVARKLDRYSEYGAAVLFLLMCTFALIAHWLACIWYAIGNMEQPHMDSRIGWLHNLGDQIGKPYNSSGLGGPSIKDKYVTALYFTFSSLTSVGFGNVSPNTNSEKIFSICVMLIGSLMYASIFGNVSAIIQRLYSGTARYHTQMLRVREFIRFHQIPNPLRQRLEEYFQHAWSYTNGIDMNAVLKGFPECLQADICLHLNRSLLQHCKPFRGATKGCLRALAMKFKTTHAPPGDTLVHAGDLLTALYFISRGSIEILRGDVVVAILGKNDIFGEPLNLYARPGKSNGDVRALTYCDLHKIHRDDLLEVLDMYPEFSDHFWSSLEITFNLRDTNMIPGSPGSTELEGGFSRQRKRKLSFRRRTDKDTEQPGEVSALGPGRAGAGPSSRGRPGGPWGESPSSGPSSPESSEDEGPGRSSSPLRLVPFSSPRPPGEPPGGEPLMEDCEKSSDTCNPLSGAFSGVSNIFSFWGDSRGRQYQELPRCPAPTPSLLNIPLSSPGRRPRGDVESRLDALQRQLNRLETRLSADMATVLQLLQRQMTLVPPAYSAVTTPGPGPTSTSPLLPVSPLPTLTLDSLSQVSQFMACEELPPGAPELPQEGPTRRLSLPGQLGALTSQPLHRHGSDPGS

SMILES	PDHa activity (% of PDHt activity) [1, 4]	PDHa activity (% of PDHt activity) [1, 5]	hERG current Inhibition rate (%) ([2]; 3 μmol/L)	hERG current Inhibition rate (%) ([2]; 30 μmol/L)	PDHa activity (% of PDHt activity) [3, 4]	PDHa activity (% of PDHt activity) [3, 5]
CC(C)(O)COc1cc(-c2cnn(CCO)c2)c2c(c1)[C@@](O)(C(F)(F)F)c1ccccc1-2 [Compound (C), (9R)-4-[1-(2-Hydroxyethyl)-1H-pyrazol-4-yl]-2-(2-hydroxy-2-methylpropoxy)-9-(trifluoromethyl)-9H-fluoren-9-ol]	53 ± 4 % of PDHt activity	28 ± 7 % of PDHt activity	11.5	69.0	44 ± 5 % of PDHt activity	13 ± 3 % of PDHt activity
CC(C)(C(N)=O)n1cc(-c2cc(F)cc3c2-c2ccccc2[C@]3(O)C(F)(F)F)cn1 [Compound (D), 2-{4-[(9R)-2-Fluoro-9-hydroxy-9-(trifluoromethyl)-9H-fluoren-4-yl]-1H-pyrazol-1-yl}-2-methylpropanamide]	43 ± 7 % of PDHt activity	24 ± 3 % of PDHt activity	9.4	67.5	41 ± 15 % of PDHt activity	20 ± 1 % of PDHt activity
